Results on 23 compounds are retold here after patent US7459449B2 (priority 2004, dated 2008).

Structures can show the parent of a compound that is named as a salt. Where two headings read alike, the source gives them in different places.

Data set [1] in a line: Tendency to form solvates (acetone). Type of data set: physicochemical. As to conditions: generally acetone as the solvent. The source says: Additionally the inventive salts are not prone to forming solvates. Solvates with organic solvents such as acetone, dichloromethane, dioxane, etc., are inconvenient in pharmaceutical applications because of the toxicity of the solvent. […] A typical example of such a solvate salt is the acetone solvate of olanzapine succinate. The solvent may nevertheless be present in the wet cake of the crude material after isolation in solid state, but a solvent-free product should be obtained by ordinary means of drying. A solvent-free salt (i.e. less than 0.5%, preferably less than 0.1%, of the solvent present) is particularly preferred as the absence of the solvent is advantageous for pharmaceutical applications.

A short description of data set [2]: Hygroscopicity. It counts as physicochemical.
The nature of data set [3]: Stability against light. Type of data set: physicochemical.
Data set [4] is described as follows: Water solubility test at 10 mg/ml. Particulars: thermodynamic from solid.
For data set [5] the following is noted: cited from earlier work.
The nature of data set [6]: Isolation of the olanzapine salt in solid form. Type of data set: physicochemical.
Data set [7] in a line: Stability of 1% aqueous solution against precipitation. As to conditions: for Is 1% solution stable from precipitation?: 1% aqueous solution, at least 12 to 24 hours (overnight).
From the text: (§1) A failure was considered to be 1% or more of impurities being formed; i.e. if 1% or more formed, then the salt is reported as “No,” not stable, for the corresponding test.
Data set [8] in a line: Solid state stability (impurity formation on storage). It counts as physicochemical. As to conditions: short period of storage.
From the text: as §1

In the case of `Cc1cc2c(s1)Nc1ccccc1N=C2N1CCN(C)CC1.O=C(O)C(O)C(O)C(=O)O.O=C(O)C(O)C(O)C(=O)O` [Di-L-tartrate, reference compound], in data set [1], the “Is there low tendency to form solvates?” value is given as “No”.
Same read-out and setting: with `Cc1cc2c(s1)Nc1ccccc1N=C2N1CCN(C)CC1.O=C(O)C=CC(=O)O.O=C(O)C=CC(=O)O` [Dimaleate, reference compound] the entry was “No”; with `Cc1cc2c(s1)Nc1ccccc1N=C2N1CCN(C)CC1.Cc1cc2c(s1)Nc1ccccc1N=C2N1CCN(C)CC1.O=C(O)CCCCC(=O)O` [Hemiadipate, Olanzapine Hemi-Adipate], “Yes”.
Still for that read-out and setting: with `Cc1cc2c(s1)Nc1ccccc1N=C2N1CCN(C)CC1.Cc1cc2c(s1)Nc1ccccc1N=C2N1CCN(C)CC1.O=S(=O)(O)O` [Hemisulfate, reference compound] the entry was “No”.
Consider `Cc1cc2c(s1)Nc1ccccc1N=C2N1CCN(C)CC1.O=C(O)CC(=O)O` [Hydrogenmalonate, Olanzapine Hydrogenmalonate], for which the hygroscopicity entry in [2] is reported as “generally non-hygroscopic”. The “stability against the action of light” value in data set [3] is “sufficiently stable against the action of light”. Moreover, in data set [1], the “Is there low tendency to form solvates?” value was “Yes”.
As to `CC(O)C(=O)O.Cc1cc2c(s1)Nc1ccccc1N=C2N1CCN(C)CC1` [Mono-L-lactate, Olanzapine Lactate], in [1], the “Is there low tendency to form solvates?” value was “Yes”.
`Cc1cc2c(s1)Nc1ccccc1N=C2N1CCN(C)CC1.O=C(O)c1ccccc1` [Monobenzoate, Olanzapine Benzoate]: in [2], the hygroscopicity entry was “generally non-hygroscopic”. Further, the “stability against the action of light” value in data set [3] was “sufficiently stable against the action of light”. For the same compound, the “Is there low tendency to form solvates?” value in data set [1] was “Yes”.
With `CCS(=O)(=O)O.Cc1cc2c(s1)Nc1ccccc1N=C2N1CCN(C)CC1` [Monoesylate, Olanzapine Esylate], the “Is there low tendency to form solvates?” value in [1] was “Yes”.
By solubility is commonly meant the dissolved amount per volume that the medium holds. In the case of `Cc1cc2c(s1)Nc1ccccc1N=C2N1CCN(C)CC1` [Monohydrochloride, Olanzapine Monohydrochloride], in data set [4], the solubility is greater than 10000 µg/mL.
`Cc1cc2c(s1)Nc1ccccc1N=C2N1CCN(C)CC1.O=S(=O)(O)O` [Monosulfate, Olanzapine Hydrogensulfate]: the “Is there low tendency to form solvates?” value in data set [1] is “No”.
For the compound `Cc1cc2c(s1)Nc1ccccc1N=C2N1CCN(C)CC1.O.O=C(O)c1cc2ccccc2c(Cc2c(O)c(C(=O)O)cc3ccccc23)c1O` [Pamoate, olanzapine pamoate, reference compound], in data set [5], the “water solubility (in words), background” value is reported as “insoluble in water”. In [1], the “Is there low tendency to form solvates?” value is “No”.
Regarding Mandelate [reference compound], the “Readily isolatable in solid form?” value in [6] is “No”.
For the compound Olanzapine, in [5], the “water solubility (in words), background” value is reported as “insoluble in water”. The “solubility at pH 6.8” value in [5] (pH 6.8, marketed free base) was 0.02 mg/ml.
On to Olanzapine Acetate [Monoacetate], for which the “Readily isolatable in solid form?” value in data set [6] was “Yes”. For the same compound, in data set [7], the “Is 1% solution stable from precipitation?” value (“Is 1% solution stable” below) is recorded as “No”. Moreover, in [1], the “Is there low tendency to form solvates?” value is given as “Yes”.
As for Olanzapine Besylate [Monobesylate], in data set [6], the “Readily isolatable in solid form?” value is recorded as “Yes”. In addition, the “Is 1% solution stable” value in [7] is recorded as “No”. Moreover, the “Is there low tendency to form solvates?” value in [1] was “Yes”.
Regarding “Olanzapine Hemi-Succinate [Hemisuccinate]”, in [6], the “Readily isolatable in solid form?” value is reported as “Yes”. In [7], the “Is 1% solution stable” value was “No”. For the same compound, in [1], the “Is there low tendency to form solvates?” value is given as “No”.
As to Olanzapine Hemifumarate, the “Readily isolatable in solid form?” value in data set [6] is “Yes”. Besides, the “Is 1% solution stable” value in data set [7] was “No”. For the same compound, the “Is there low tendency to form solvates?” value in data set [1] is recorded as “No”.
Take Olanzapine Hydrogenmaleate: the “water solubility (in words)” value (listed as maleate) is given as “good water solubility” and the “water solubility (in words)” value (listed as olanzapine hydrogenmaleate) is given as “soluble in water”. In addition, in data set [6], the “Readily isolatable in solid form?” value is reported as “Yes”. Also, the hygroscopicity entry in data set [2] is recorded as “generally non-hygroscopic”. Moreover, the “stability against the action of light” value in [3] is “sufficiently stable against the action of light”. For the same compound, the “Is 1% solution stable” value in data set [7] is “No”. Further, in data set [7] (aqueous solution), the “hydrolysis by water (liberation of olanzapine base in aqueous solution)” value was “hydrolysable by water”. Also, the “Is there low tendency to form solvates?” value in [1] is reported as “Yes”.
Regarding Olanzapine Mesylate [Monomesylate], in [6], the “Readily isolatable in solid form?” value was “Yes”. In data set [7], the “Is 1% solution stable” value is reported as “No”. Also, the “Is there low tendency to form solvates?” value in data set [1] is on record as “No”.
Take “Olanzapine Mono-Tartrate [Mono-L-tartrate]”: the “Readily isolatable in solid form?” value in data set [6] is “Yes”. Moreover, the “Is 1% solution stable” value in data set [7] is on record as “Yes”. Besides, the “Is there low tendency to form solvates?” value in data set [1] is “No”.
In the case of Tosylate [reference compound], the “Readily isolatable in solid form?” value in data set [6] is listed as “No”.
For the compound “olanzapine dibesylate [reference compound]”, the “Readily isolatable in solid form?” value in data set [6] is “Yes**”. The “solid state behaviour on storage” value in data set [8] is reported as “become oily after a short period of storage”.
For “olanzapine dimesylate [reference compound]”, the “Readily isolatable in solid form?” value in data set [6] is “Yes**”. Further, the “solid state behaviour on storage” value in data set [8] is “become oily after a short period of storage”.
